Read-outs that look alike come from different tables or passages of the source.
Experiments:
Balb/c mice = experiment: Prevention of concanavalin A liver injury; assay type: in vivo, mouse; details: Mus musculus, po, 24 h, 10 mg/mL suspension at 10 mL/kg, 30 min prior to Con A, plasma 24 hr after Con A
Protocol: Five (5) Balb/c mice (female, 6-8 weeks old) per group were used. Liver injury was elicited in the mouse by injection of concanavalin A (Con A) dissolved in saline (2.0 mg/mL) into the tail vein at a volume of 10 mL/kg of the solution (Hepatology, 21, 190-198 (1995)).
The test compounds were suspended in distilled water containing 0.5% CMC, at a concentration of 10 mg/mL. This suspended solution was orally administered to the mouse at a volume of 10 mL/kg, 30 min prior to injection of Con A (group A).
Apart from this group, distilled water containing 0.5% CMC powder, instead of the test compound, was orally administered in the second group of mice (group B). In the 3rd group, nothing was given to the mice (group C).
Twenty four (24) hr after the injection of Con A, blood was collected from the abdominal aorta of the mice and the plasma was isolated while mixing with heparin. Activities of glutamic acid oxaloacetic acid transaminase (AST) and glutamic acid pyruvic acid transaminase (ALT) in the plasma were determined according to the methods described by Nagakawa et al. (J. Pharmacol. Exp. Ther., 264, 496-500 (1993)). From the values obtained inhibitory rates of the test compound against AST and ALT levels which had been increased by injection of Con A, were obtained based on the following equation.
Inhibitory Rate(%)={1−[(A−C)/(B−C)]}×100
A: The average level of AST or ALT in the group A
B: The average level of AST or ALT in the group B
C: The average level of AST or ALT in the group C

ABCA1 mRNA = experiment: Quantitative analysis of ABCA1 mRNA (TaqMan PCR) in RAW264.7 cells; assay type: cell-based, mouse; details: 100 nM test compound, 24 hr, normalised to β-actin, DMSO = 100
Protocol: The mouse monocyte/macrophage cell line, RAW264.7 (ATCC TIB71) was purchased from Dainippon Pharmaceutical Co., Ltd. As the medium, the Dulbecco's modified Eagle's medium (DMEM medium; GIBCO, Cat. No. 11995-040) containing bovine fetal serum (the final concentration: 10% (v/v), MOREGATE, lot No. 474030), penicillin G (the final concentration: 50 units/mL, GIBCO) and streptomycin (the final concentration: 20 μg/mL, GIBCO) was used.
The culture of RAW264.7 cells was carried out in a CO2 incubator (37° C., 95% R.H., 5% of CO2).
A 2 ml volume of RAW264.7 cells suspension (1×10^6 cells/mL) was plated in each well of a 6-well plate (2×10^6 cells/well) and the cells were incubated for 2 hr in a CO2 incubator. The test compounds dissolved in DMSO were diluted with DMEM medium by 20 times, and were added to the wells at a volume of 4 μL/well (final concentration of the test compound: 100 nM). As the control, the DMSO solution was diluted with the DMEM medium by 20 times, and was added to the wells at the volume of 4 μL/well. After the cells were cultured in a CO2 incubator for 24 hr, the medium was removed and the total RNA was purified by using an RNeasy Mini Kit (Qiagen), according to the protocol attached. The concentration of the RNA in the samples obtained was calculated from absorbance at 260 nm (A260=1=40 μg/ml). Six (6) μg of total RNA were diluted with RNAase-free water so as to be 22.6 μL, which was heated at 65° C. for 10 min, and then was cooled on ice. The RNA in the solution was used as the template, and the cDNA was synthesized by using a First-strand cDNA Synthesis Kit (Amersham Pharmacia Biotech). In this reaction, a solution was prepared having the following composition and was reacted at 37° C. for 1 hr.
After the reaction, 3 μL of soution were collected from each of the reaction mixtures of the test compound-treated cell samples and that of the control cell samples. The mixed solution was used as the standard solution. The standard solution and each reaction solution were purified with a Chroma Spin-100+DEPC-H2O Column according to the protocol attached, and they were used as the template for TaqMan PCR (Template). In order to draw the calibration curve, the standard solution was diluted by every 5 times for 5 steps and each solution was used for TaqMan PCR. TaqMan PCR was carried out in ABCA1 and β-actin. As Primers for use in the TaqMan PCR, 4 oligonucleotides (abca1 forward (S3), abca1 reverse (AS3), β-actin forward (S4) and β-actin reverse (AS4)) were designed which are shown in sequences No. 5 to 8 in the sequence table described later. The synthesis and purification of these 4 oligomers was ordered from Amersham Pharmacia Biotech Co.
As FAM-TAMRA labelled TaqMan Probe, 2 kinds of oligonucleotides (abca1 (p1) and β-actin (p2)) were designed and were ordered from Applied Biosystems Co. to synthesize and purify.
The following reaction mixture of ABCA1 or β-actin was divided into 2 wells of a MicroAmp Optical 96-well Reaction Plate (Applied Biosystem Co.). TaqMan Universal PCR Master Mix was purchased from Applied Biosystem Co.
The plate was covered with a MicroAmp Optical Cap (Applied Biosystems Co.), and TaqMan PCR was carried out by using an ABI PRISM 7,700 Sequence Detection System (Applied Biosystem Co.) under the following conditions:
An analysis was made according to the procedures described in the manual of Sequence Detection Software (Applied Biosystem Co.) and the increased rate of ABCA1 mRNA due to the test compound was calculated based on the following equation.
A: Amount of the ABCA1 mRNA in the presence of the test compound
B: Amount of the β-actin mRNA in the presence of the test compound
C: Amount of the ABCA1 mRNA in the presence of DMSO
D: Amount of the β-actin mRNA in the presence of DMSO
Increase Rate (%) of ABCA1 mRNA=(A/B)/(C/D)×100

[1] = read-out: Preventing rate against liver injury, ALT (%)
[2] = read-out: Preventing rate against liver injury, AST (%)

SMILES: Cc1ccc(NC(=O)c2cc([N+](=O)[O-])ccc2Cl)cc1 [Example 1, N-(4-Methylphenyl)-(2-chloro-5-nitrophenyl)carboxamide]
- inhibition in vivo at 10000 µg/mL, 100 mg/kg (Balb/c mice; [1]): 40.1%
- inhibition in vivo at 10000 µg/mL, 100 mg/kg (Balb/c mice; [2]): 19%

SMILES: O=C(Nc1ccc(-c2ccccc2)cc1)c1cc([N+](=O)[O-])ccc1Cl [Example 2, N-(4-Phenylphenyl)-(2-chloro-5-nitrophenyl)carboxamide]
- inhibition in vivo at 10000 µg/mL, 100 mg/kg (Balb/c mice; [1]): 64.5%
- inhibition in vivo at 10000 µg/mL, 100 mg/kg (Balb/c mice; [2]): 4.1%

SMILES: O=C(Nc1ccc(-c2ccccn2)cc1)c1cc([N+](=O)[O-])ccc1Cl [Example 8, N-[4-(2-Pyridyl)phenyl]-(2-chloro-5-nitrophenyl)carboxamide]
- inhibition in vivo at 10000 µg/mL, 100 mg/kg (Balb/c mice; [1]): 57%
- inhibition in vivo at 10000 µg/mL, 100 mg/kg (Balb/c mice; [2]): 56%

SMILES: Cc1ccc2nc(-c3ccc(NC(=O)c4cc([N+](=O)[O-])ccc4Cl)cc3)sc2c1 [Example 10, N-[4-(6-Methylbenzothiazol-2-yl)phenyl]-(2-chloro-5-nitrophenyl)carboxamide]
- inhibition in vivo at 10000 µg/mL, 100 mg/kg (Balb/c mice; [1]): 55.9%
- inhibition in vivo at 10000 µg/mL, 100 mg/kg (Balb/c mice; [2]): 49%

SMILES: CCCCCc1ccc(NC(=O)c2cc([N+](=O)[O-])ccc2Cl)cc1 [Example 16, N-(4-Pentylphenyl)-(2-chloro-5-nitrophenyl)carboxamide]
- inhibition in vivo at 10000 µg/mL, 100 mg/kg (Balb/c mice; [1]): 44.4%
- inhibition in vivo at 10000 µg/mL, 100 mg/kg (Balb/c mice; [2]): 21.4%

SMILES: N#Cc1ccc(NC(=O)c2cc([N+](=O)[O-])ccc2Cl)cc1 [Example 20, N-(4-Cyanophenyl)-(2-chloro-5-nitrophenyl)carboxamide]
- inhibition in vivo at 10000 µg/mL, 100 mg/kg (Balb/c mice; [1]): 67.2%
- inhibition in vivo at 10000 µg/mL, 100 mg/kg (Balb/c mice; [2]): 77%

SMILES: O=C(Nc1nc(-c2ccccc2)cs1)c1cc([N+](=O)[O-])ccc1Cl [Example 35, N-(4-Phenylthiazol-2-yl)-(2-chloro-5-nitrophenyl)carboxamide]
- inhibition in vivo at 10000 µg/mL, 100 mg/kg (Balb/c mice; [1]): 12.4%

SMILES: O=C(Nc1nc(-c2cccnc2)cs1)c1cc([N+](=O)[O-])ccc1Cl [Example 37, N-[4-(3-Pyridyl)thiazol-2-yl)-(2-chloro-5-nitrophenyl)carboxamide]
- inhibition in vivo at 10000 µg/mL, 100 mg/kg (Balb/c mice; [1]): 20.7%

SMILES: COc1cnc(NS(=O)(=O)c2ccc(NC(=O)c3cc([N+](=O)[O-])ccc3Cl)cc2)nc1 [Example 105, N-[4-[(5-Methoxypyrimidin-2-yl)aminosulfonyl]phenyl]-(2-chloro-5-nitrophenyl)carboxamide]
- inhibition in vivo at 10000 µg/mL, 100 mg/kg (Balb/c mice; [1]): 22.4%
- inhibition in vivo at 10000 µg/mL, 100 mg/kg (Balb/c mice; [2]): 27.5%

SMILES: N=C(N)NS(=O)(=O)c1ccc(NC(=O)c2cc([N+](=O)[O-])ccc2Cl)cc1 [Example 106, N-[4-(Amidinoaminosulfonyl)phenyl]-(2-chloro-5-nitrophenyl)carboxamide]
- inhibition in vivo at 10000 µg/mL, 100 mg/kg (Balb/c mice; [1]): 114%
- inhibition in vivo at 10000 µg/mL, 100 mg/kg (Balb/c mice; [2]): 106%

SMILES: O=C(Nc1ccc(S(=O)(=O)Nc2cccnc2)cc1)c1cc([N+](=O)[O-])ccc1Cl [Example 178]
- inhibition in vivo at 10000 µg/mL, 100 mg/kg (Balb/c mice; [1]): 50.5%
- inhibition in vivo at 10000 µg/mL, 100 mg/kg (Balb/c mice; [2]): 64.5%

SMILES: CCCCCCCCN(CCCC)c1ccc(-c2ccc(NC(=O)c3cc([N+](=O)[O-])ccc3Cl)cc2)cc1.Cl [Example 223, N-[4-[4-(N-Butyl-N-octylamino)phenyl]phenyl]-(2-chloro-5-nitrophenyl)carboxamide mono-hydrochloride]
- Rate of Increase (%) of ABCA1 mRNA (ABCA1 mRNA): 204.0%

SMILES: CCCCCCCCN(CCC)c1ccc(-c2ccc(NC(=O)c3cc([N+](=O)[O-])ccc3Cl)cc2)cc1 [Example 224, N-[4-[4-(N-Octyl-N-propylamino)phenyl]phenyl]-(2-chloro-5-nitrophenyl)carboxamide]
- Rate of Increase (%) of ABCA1 mRNA (ABCA1 mRNA): 179.0%

SMILES: O=C(Nc1ccc(CCNC(=S)Nc2cccnc2)cc1)c1cc([N+](=O)[O-])ccc1Cl [Example 273, N-[4-[2-(Pyridin-3-yl)aminothiocarbonylaminoethyl]phenyl]-(2-chloro-5-nitrophenyl)carboxamide]
- Rate of Increase (%) of ABCA1 mRNA (ABCA1 mRNA): 146.0%

— patent US20030134859A1 (SANKYO COMPANY, LIMITED, priority 2000, published 2003)
